Assay results published in patent publication US20130005730A1, “NOVEL 1,3-OXAZOLIDINE COMPOUNDS AND THEIR USE AS RENIN INHIBITORS” (priority 2009, published 2013).
Structures can show the parent of a compound that is named as a salt. Each block holds one molecule with its values, some of them ahead of it.

Assays:
[1] = Stability of the isolated compound (observation in synthesis); format: physicochemical; details: after column chromatography, brown oil
Procedure: Chloromethyl (4S,5S)-5-((2S)-2-{[(3-amino-2,2-dimethyl-3-oxopropyl)amino]carbonyl}-3-methylbutyl)-4-{(2S)-2-[4-methoxy-3-(3-methoxypropoxy)benzyl]-3-methylbutyl}-1,3-oxazolidine-3-carboxylate (191 mg) and sodium iodide (135 mg) were mixed with dry acetonitrile and heated under stirring at 75° C. for 1 h 20 min. Full conversion according to LC-MS. Reaction mixture was mixed with water and extracted into DCM, washed with brine, dried over MgSO4. 186 mg of crude product was obtained, which was purified by column chromatography on silica gel (EtOAc) to give 72 mg of pure material as brown oil. […] LCMS: 748.3 [M+1]^+, 770.3 [M+Na]^+.

[2] = Chemical stability at pH 2.0; format: physicochemical; details: pH 2 aqueous buffer, 3 h incubation at 37° C., LCMS
Procedure: (§1) The compounds of the invention were studied for their chemical stability:
10 mM DMSO solution of the compound of the formula (I) was prepared. 10 μl of the solution was added to 1 ml of pH 2 aqueous buffer at 37° C. The solution was kept at 37° C. At each time point, a small aliquote was taken and the sample was analyzed by LCMS.

[3] = Chemical stability at pH 7.4; format: physicochemical; details: pH 7.4 aqueous phosphate buffer, 3 h incubation at 37° C., LCMS
Procedure: as §1
10 mM DMSO solution of the compound of the formula (I) was prepared. 10 μl of the solution was added to 1 ml of pH 7.4 aqueous phosphate buffer at 37° C. The solution was kept at 37° C. At each time points, a small aliquote was taken and the sample was analyzed by LCMS.

[4] = Clinical Pharmacokinetics, 2008, 47, 515-531; cited from earlier work
[5] = In vivo bioavailability experiment: plasma aliskiren after a single i.v. or oral dose; details: male, Sprague-Dawley, rat, rats, plasma up to 24 h
Procedure: For comparison, aliskiren hemifumarate was dosed both i.v. (intravenous) and orally. For all experiment, the compounds were administrated to three individually weighted male Sprague-Dawley rats. For all po dosing, the dose was 25 μmole/kg in a dose volume of 8 ml/kg and the dose vehicle was 50% propylene glycol/50% pH 4.75 buffer (0.1M aqueous buffer of NaOAc/HOAc) by volume ratio. […] For the i.v. dosing of the compounds of invention, a vehicle of 45% PEG400/55% pH 4.75 buffer (0.1M aqueous buffer of NaOAc/HOAc) by volume ratio was used and the dose were 5 μmole/kg in a dose volume of 1.5 ml/kg. Male Sprague-Dawley rats were fasted for about 16-17 h before po dosing and fasting lasted about 2-3 h post-dose. Water was given ad libitum. The blood samples were taken at different time points up to 24 h. For i.v. dosing group, at 5 min, 15 min, 30 min, 1 h, 2 h, 4 h, 6 h, 8 h, 24 h. For oral doing group, at 15 min, 30 min, 1 h, 2 h, 4 h, […], 24 h. The blood samples were collected in heparinized tube and centrifuged at 3500 rpm for 5 min. The plasma samples were stored at about −20° C. for analysis.
After the work-up of the plasma samples, LC-MS/MS was used for the quantitation of the aliskiren and the compounds of the invention. Standard curves were made for aliskiren and the substances for study.

- stability of the compound [1]: not stable and decomposes rather rapidly
Compound: COCCCOc1cc(C[C@@H](C[C@H]2[C@H](C[C@H](C(=O)NCC(C)(C)C(N)=O)C(C)C)OCN2C(=O)OCI)C(C)C)ccc1OC [Example 14, Iodomethyl (4S,5S)-5-((2S)-2-{[(3-amino-2,2-dimethyl-3-oxopropyl)amino]carbonyl}-3-methylbutyl)-4-{(2S)-2-[4-methoxy-3-(3-methoxypropoxy)benzyl]-3-methylbutyl}-1,3-oxazolidine-3-carboxylate]

Compound: COCCCOc1cc(C[C@@H](C[C@H]2[C@H](C[C@H](C(=O)NCC(C)(C)C(N)=O)C(C)C)OCN2C(=O)OCOC(=O)C2(CN)CC2)C(C)C)ccc1OC [Example 53, {1-[({[((4S,5S)-5-((2S)-2-{[(3-amino-2,2-dimethyl-3-oxopropyl)amino]carbonyl}-3-methylbutyl)-4-{(2S)-2-[4-methoxy-3-(3-methoxypropoxy)benzyl]-3-methylbutyl}-1,3-oxazolidin-3-yl)carbonyl]oxy}methoxy)carbonyl]cyclopropyl}methanaminium trifluoroacetate]
- Chemical stability pH 2 (decomposition) [2]: A (Less than 5% decomposition after 3 h incubation at 37° C.)
- Chemical stability pH 7.4 (decomposition) [3]: C (Less than 50% decomposition after 3 h incubation at 37° C.)

Compound: COCCCOc1cc(C[C@@H](C[C@H]2[C@H](C[C@H](C(=O)NCC(C)(C)C(N)=O)C(C)C)OCN2C(=O)OCOC(=O)c2cncn2C)C(C)C)ccc1OC [Example 44, {[(1-methyl-1H-imidazol-5-yl)carbonyl]oxy}methyl (4S,5S)-5-((2S)-2-{[(3-amino-2,2-dimethyl-3-oxopropyl)amino]carbonyl}-3-methylbutyl)-4-{(2S)-2-[4-methoxy-3-(3-methoxypropoxy)benzyl]-3-methylbutyl}-1,3-oxazolidine-3-carboxylate]
- Chemical stability pH 2 (decomposition) [2]: A (Less than 5% decomposition after 3 h incubation at 37° C.)
- Chemical stability pH 7.4 (decomposition) [3]: A (Less than 5% decomposition after 3 h incubation at 37° C.)

Compound: COCCCOc1cc(C[C@@H](C[C@H]2[C@H](C[C@H](C(=O)NCC(C)(C)C(N)=O)C(C)C)OCN2C(=O)OCOC(=O)C2COCOC2)C(C)C)ccc1OC [Example 32, [(1,3-dioxan-5-ylcarbonyl)oxy]methyl (4S,5S)-5-((2S)-2-{[(3-amino-2,2-dimethyl-3-oxopropyl)amino]carbonyl}-3-methylbutyl)-4-{(2S)-2-[4-methoxy-3-(3-methoxypropoxy)benzyl]-3-methylbutyl}-1,3-oxazolidine-3-carboxylate]
- Chemical stability pH 2 (decomposition) [2]: A (Less than 5% decomposition after 3 h incubation at 37° C.)
- Chemical stability pH 7.4 (decomposition) [3]: B (Less than 25% decomposition after 3 h incubation at 37° C.)

Compound: COCCCOc1cc(C[C@@H](C[C@H](N)[C@@H](O)C[C@H](C(=O)NCC(C)(C)C(N)=O)C(C)C)C(C)C)ccc1OC [Aliskiren, (2S,4S,5S,7S)—N-(2-Carbamoyl-2-methylpropyl)-5-amino-4-hydroxy-2,7-diisopropyl-8-[4-methoxy-3-(3-methoxypropoxy)phenyl]-octanamide, reference compound]
- oral bioavailability [4]: about 2.6%
- Chemical stability pH 2 (decomposition) [2]: A (Less than 5% decomposition after 3 h incubation at 37° C.)
- Chemical stability pH 7.4 (decomposition) [3]: A (Less than 5% decomposition after 3 h incubation at 37° C.)

Compound: COCCCOc1cc(C[C@@H](C[C@H]2[C@H](C[C@H](C(=O)NCC(C)(C)C(N)=O)C(C)C)OCN2C(=O)OCOC(=O)C(C)(C)CO)C(C)C)ccc1OC [Example 27, [(3-hydroxy-2,2-dimethylpropanoyl)oxy]methyl (4S,5S)-5-((2S)-2-{[(3-amino-2,2-dimethyl-3-oxopropyl)amino]carbonyl}-3-methylbutyl)-4-{(2S)-2-[4-methoxy-3-(3-methoxypropoxy)benzyl]-3-methylbutyl}-1,3-oxazolidine-3-carboxylate]
- Chemical stability pH 2 (decomposition) [2]: A (Less than 5% decomposition after 3 h incubation at 37° C.)
- Chemical stability pH 7.4 (decomposition) [3]: A (Less than 5% decomposition after 3 h incubation at 37° C.)

Compound: COCCCOc1cc(C[C@@H](C[C@H]2[C@H](C[C@H](C(=O)NCC(C)(C)C(N)=O)C(C)C)OCN2C(=O)OCOC(=O)C(C)(C)C)C(C)C)ccc1OC [Example 6, (4S,5S)-pivaloyloxymethyl 5-[(S)-2-(3-amino-2,2-dimethyl-3-oxopropylcarbamoyl)-3-methylbutyl]-4-{(S)-2-[4-methoxy-3-(methoxypropoxy)benzyl]-3-methylbutyl}oxazolidine-3-carboxylate]
- Chemical stability pH 2 (decomposition) [2]: A (Less than 5% decomposition after 3 h incubation at 37° C.)
- Chemical stability pH 7.4 (decomposition) [3]: B (Less than 25% decomposition after 3 h incubation at 37° C.)

Compound: COCCCOc1cc(C[C@@H](C[C@H]2[C@H](C[C@H](C(=O)NCC(C)(C)C(N)=O)C(C)C)OCN2C(=O)OCOC(=O)OC2CCN(C)CC2)C(C)C)ccc1OC [Example 35, ({[(1-methylpiperidin-4-yl)oxy]carbonyl}oxy)methyl (4S,5S)-5-((2S)-2-{[(3-amino-2,2-dimethyl-3-oxopropyl)amino]carbonyl}-3-methylbutyl)-4-{(2S)-2-[4-methoxy-3-(3-methoxypropoxy)benzyl]-3-methylbutyl}-1,3-oxazolidine-3-carboxylate]
- Chemical stability pH 2 (decomposition) [2]: A (Less than 5% decomposition after 3 h incubation at 37° C.)
- Chemical stability pH 7.4 (decomposition) [3]: A (Less than 5% decomposition after 3 h incubation at 37° C.)

- AUC(0-t) ([5]; iv, i.v. 5 μmole/kg): 994 ± 162 ng·h/mL
- AUC(0-t) ([5]; po, p.o. 25 μmole/kg): 28 ± 20.5 ng·h/mL
Compound: COCCCOc1cc(C[C@@H](C[C@H](N)[C@@H](O)C[C@H](C(=O)NCC(C)(C)C(N)=O)C(C)C)C(C)C)ccc1OC [Aliskiren hemifumarate]

Compound: COCCCOc1cc(C[C@@H](C[C@H]2[C@H](C[C@H](C(=O)NCC(C)(C)C(N)=O)C(C)C)OCN2C(=O)OCOC(=O)C2(N)CC2)C(C)C)ccc1OC.O=C(O)C(F)(F)F [Example 43, {[(1-aminocyclopropyl)carbonyl]oxy}methyl (4S,5S)-5-((2S)-2-{[(3-amino-2,2-dimethyl-3-oxopropyl)amino]carbonyl}-3-methylbutyl)-4-{(2S)-2-[4-methoxy-3-(3-methoxypropoxy)benzyl]-3-methylbutyl}-1,3-oxazolidine-3-carboxylate, trifluoroacetate]
- Chemical stability pH 2 (decomposition) [2]: A (Less than 5% decomposition after 3 h incubation at 37° C.)
- Chemical stability pH 7.4 (decomposition) [3]: B (Less than 25% decomposition after 3 h incubation at 37° C.)

Compound: COCCCOc1cc(C[C@@H](C[C@H]2[C@H](C[C@H](C(=O)NCC(C)(C)C(N)=O)C(C)C)OCN2C(=O)OCOC(=O)OC(C)C)C(C)C)ccc1OC [Example 12, (4S,5S)-(isopropoxycarbonyloxy)methyl 5-[(S)-2-(3-amino-2,2-dimethyl-3-oxopropylcarbamoyl)-3-methylbutyl]-4-{(S)-2-[4-methoxy-3-(methoxypropoxy)benzyl]-3-methylbutyl}oxazolidine-3-carboxylate]
- Chemical stability pH 2 (decomposition) [2]: A (Less than 5% decomposition after 3 h incubation at 37° C.)
- Chemical stability pH 7.4 (decomposition) [3]: B (Less than 25% decomposition after 3 h incubation at 37° C.)
